These results are taken from ChEMBL document CHEMBL3745696, “Synthesis and cytotoxic activity of novel hexahydropyrrolo[2,3-b]indole imidazolium salts” (Bioorg Med Chem Lett, 2016).

The test system of experiment [1] is SW480. Description: Cytotoxicity against human SW480 cells by MTT assay. It counts as functional, cell-based. In general terms: Tetrazolium dyes change colour on reduction, which living cells bring about.
Experiment [2] in a line: Cytotoxicity against human SMMC7721 cells by MTT assay. As to conditions: SMMC-7721. Format: functional, cell-based.
For experiment [3], the system named is A549. The experiment is described as follows: Cytotoxicity against human A549 cells by MTT assay. Format: functional, cell-based.
The subject of experiment [4] is MCF7. Description: Potency index, ratio IC50 of cisplatin to IC50 of compound for cytotoxicity against human MCF7 cells. Format: functional.
Experiment [5] relates to MCF7. The experiment is described as follows: Cytotoxicity against human MCF7 cells by MTT assay. Format: functional, cell-based.
Experiment [6] can be described thus: Cytotoxicity against human HL60 cells by MTT assay. Format: functional, cell-based. As to conditions: HL-60.
Experiment [7] concerns SW480. Description: Potency index, ratio IC50 of cisplatin to IC50 of compound for cytotoxicity against human SW480 cells. Format: functional.
The subject of experiment [8] is A549. The experiment is described as follows: Potency index, ratio IC50 of cisplatin to IC50 of compound for cytotoxicity against human A549 cells. Format: functional.
Experiment [9] in a line: Potency index, ratio IC50 of cisplatin to IC50 of compound for cytotoxicity against human SMMC7721 cells. Format: functional, SMMC-7721.

Each structure is given as a SMILES string.

What is called IC50 is the concentration that inhibits the measured activity by half. For `Cc1n(CC(=O)N2CCC3(C)c4ccccc4N(Cc4ccccc4)C23)c2ccccc2[n+]1Cc1ccc2ccccc2c1.[Br-]` (centres undefined), the concentration for half-maximal inhibition (IC50) was 1.64 µM in [1]; 1.8 µM in experiment [2]; 6.26 µM in experiment [3]; 1.46 µM in experiment [5]; 1.38 µM in experiment [6]. Further, the “Ratio IC50” value in [4] turned out to be 7.2.
Turning to `Cc1cc2c(cc1C)[n+](Cc1ccccc1Br)cn2CC(=O)N1CCC2(C)c3ccccc3N(Cc3ccccc3)C12.[Br-]` (centres undefined), the “Ratio IC50” value in experiment [7] came to 6.2; in experiment [8], 2.6; in experiment [9], 4.7. Moreover, the IC50 in experiment [1] came out at 1.44 µM; in experiment [2], 1.72 µM; in [3], 2.68 µM; in experiment [5] it was 1.78 µM; in experiment [6], 1.27 µM.
For `COc1ccc(C(=O)C[n+]2cn(CC(=O)N3CCC4(C)c5ccccc5N(C)C34)c3ccccc32)cc1` (centres undefined), the IC50 in [1], in experiment [2], in [3], in [5] and in experiment [6] was > 20 µM throughout.
For the compound `Cc1n(CC(=O)N2CCC3(C)c4ccccc4N(C)C23)c2ccccc2[n+]1Cc1ccccc1Br` (centres undefined), the IC50 is > 20 µM in [1]; 10.8 µM in experiment [2]; > 20 µM in [3]; 8.95 µM in [5]; 3.72 µM in [6].
For the compound `CN1c2ccccc2C2(C)CCN(C(=O)Cn3c[n+](CC(=O)c4ccccc4)c4ccccc43)C12` (centres undefined), the IC50 in experiment [1], in experiment [2], in experiment [3], in experiment [5] and in [6] was > 20 µM in each case.
Regarding `CN1c2ccccc2C2(C)CCN(C(=O)Cn3cc[n+](CC(=O)c4ccc5ccccc5c4)c3)C12` (centres undefined), the IC50 in experiment [1], in experiment [2], in experiment [3], in experiment [5] and in experiment [6] was > 20 µM each time.
For the compound `Cc1n(CC(=O)N2CCC3(C)c4ccccc4N(C)C23)c2ccccc2[n+]1CC(=O)c1ccc2ccccc2c1` (centres undefined), the concentration for half-maximal inhibition (IC50) in [1] came out at 10.1 µM; in experiment [2] it was 7.09 µM; in [3], 7.64 µM; in experiment [5] it was 9.45 µM; in experiment [6], 5.95 µM.
As to `Cc1n(CC(=O)N2CCC3(C)c4ccccc4N(C)C23)c2ccccc2[n+]1CC(=O)c1ccc(Br)cc1` (centres undefined), the half-inhibitory concentration (IC50) in experiment [1], in experiment [2], in experiment [3], in experiment [5] and in experiment [6] was > 20 µM throughout.
Turning to `CN1c2ccccc2C2(C)CCN(C(=O)Cn3ccnc3)C12` (centres undefined), the half-inhibitory concentration (IC50) in experiment [1], in experiment [2], in experiment [3], in experiment [5] and in [6] was > 20 µM in each case.
Consider `Cc1ccc(C[n+]2cn(CC(=O)N3CCC4(C)c5ccccc5N(Cc5ccccc5)C34)c3ccccc32)cc1` (centres undefined), for which the half-inhibitory concentration (IC50) in experiment [1] was determined as 6.57 µM; in [2] it was 4.98 µM; in experiment [3], 6.23 µM; in experiment [5], 2.72 µM; in experiment [6] it was 1.2 µM.
Take `Cc1n(CC(=O)N2CCC3(C)c4ccccc4N(Cc4ccccc4)C23)c2ccccc2[n+]1Cc1ccccc1Br` (centres undefined): the concentration for half-maximal inhibition (IC50) was found to be 4.62 µM in experiment [1]; 2.27 µM in experiment [2]; 7.34 µM in [3]; 2.5 µM in experiment [5]; 1.33 µM in [6].
